Data taken from article PMC10257182, “Discovery of senolytics using machine learning” (Nature Communications, 2023).
“And” between values parts separate entries of the source, which are not always exact repeats. Equal values may be shown once. Read-outs that look alike come from different tables or passages of the source.

Tests used:
Format in all cases: cell-based, human
[1] = test system: non-senescent control IMR90 ER:RAS cells; experiment: Nuclei count (Hoechst, high content imaging) senolytic assay, OIS model, non-senescent control cells; conditions: Homo sapiens; for viability at 10 µM: log (dose) [M] -5, 72 h; for viability at 0.02188 µM: log (dose) [M] -7.66, 72 h
Summary of the method: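 Cells seeded, left 24 h, then dosed across a 10-point […] series (10 μM down to 10 nM) with DMSO control. After 72 h, wells were fixed, permeabilised and stained with Hoechst. Nuclei were counted by high-content imaging in senescent and non-senescent IMR90 ER:RAS cultures.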

[2] = test system: senescent A549 cells (etoposide-induced); experiment: Nuclei count senolytic assay, therapy-induced senescence (TIS) model, senescent cells; conditions: for viability at 10 µM / viability at 4.68 µM / viability at 2.19 µM / viability at 1 µM / viability at 0.468 µM / viability at 0.219 µM / viability at 0.1 µM / viability at 0.0468 µM / viability at 0.0219 µM / viability at 0.01 µM: A549, Senescent cells, mean, read-out: Mean % Cell Survival; for % Cell Survival: senescence cells, single replicate
Summary of the method: (§1)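 Senescence in A549 cells is induced by 48 h of 100 μM etoposide followed by three days without drug, alongside non-senescent controls. Cells are seeded, rested 24 h, then exposed 72 h to compounds (10 nM–10 μM final, […] steps, triplicate) before nuclei are counted by imaging.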

[3] = test system: non-senescent control A549 cells; experiment: Nuclei count senolytic assay, TIS model, non-senescent control cells; conditions: for % Cell Survival: control cells, single replicate
Summary of the method: as §1

[4] = IMR-90, 72 h, Control, mean n=3 (Fig 3C), read-out: Mean % Cell Survival
[5] = IMR-90, 72 h, Control, log (dose) [M] -5.33, 72 h, mean n=3 (Fig 3C), read-out: Mean % Cell Survival
[6] = IMR-90, 72 h, Control, log (dose) [M] -5.66, 72 h, mean n=3 (Fig 3C), read-out: Mean % Cell Survival
[7] = IMR-90, 72 h, Control, log (dose) [M] -6, 72 h, mean n=3 (Fig 3C), read-out: Mean % Cell Survival
[8] = IMR-90, 72 h, Control, log (dose) [M] -6.33, 72 h, mean n=3 (Fig 3C), read-out: Mean % Cell Survival
[9] = IMR-90, 72 h, Control, log (dose) [M] -6.66, 72 h, mean n=3 (Fig 3C), read-out: Mean % Cell Survival
[10] = IMR-90, 72 h, Control, log (dose) [M] -7, 72 h, mean n=3 (Fig 3C), read-out: Mean % Cell Survival
[11] = IMR-90, 72 h, Control, log (dose) [M] -7.33, 72 h, mean n=3 (Fig 3C), read-out: Mean % Cell Survival
[12] = IMR-90, 72 h, Control, log (dose) [M] -8, 72 h, mean n=3 (Fig 3C), read-out: Mean % Cell Survival
[13] = Homo sapiens, log (dose) [M] -5
[14] = Homo sapiens, log (dose) [M] -5.33
[15] = Homo sapiens, log (dose) [M] -5.66
[16] = Homo sapiens, log (dose) [M] -6
[17] = Homo sapiens, log (dose) [M] -6.33
[18] = Homo sapiens, log (dose) [M] -6.66
[19] = Homo sapiens, log (dose) [M] -7
[20] = Homo sapiens, log (dose) [M] -7.33
[21] = Homo sapiens, log (dose) [M] -7.66
[22] = Homo sapiens, log (dose) [M] -8
[23] = Homo sapiens, A549, log (dose) [M] -5, Control cells, mean, read-out: Mean % Cell Survival
[24] = Homo sapiens, A549, log (dose) [M] -5.33, Control cells, mean, read-out: Mean % Cell Survival
[25] = Homo sapiens, A549, log (dose) [M] -5.66, Control cells, mean, read-out: Mean % Cell Survival
[26] = Homo sapiens, A549, log (dose) [M] -6, Control cells, mean, read-out: Mean % Cell Survival
[27] = Homo sapiens, A549, log (dose) [M] -6.33, Control cells, mean, read-out: Mean % Cell Survival
[28] = Homo sapiens, A549, log (dose) [M] -6.66, Control cells, mean, read-out: Mean % Cell Survival
[29] = Homo sapiens, A549, log (dose) [M] -7, Control cells, mean, read-out: Mean % Cell Survival
[30] = Homo sapiens, A549, log (dose) [M] -7.33, Control cells, mean, read-out: Mean % Cell Survival
[31] = Homo sapiens, A549, log (dose) [M] -8, Control cells, mean, read-out: Mean % Cell Survival

COc1cc(O)c2c(=O)cc(-c3ccc(OC)c(-c4c(O)cc(O)c5c(=O)cc(-c6ccc(O)cc6)oc45)c3)oc2c1 [Ginkgetin, ginkgetin]
viability at 10 µM [1, 4]: 37.6%
viability at 4.677 µM [1, 5]: 87%
viability at 2.188 µM [1, 6]: 87.7%
viability at 1 µM [1, 7]: 87.1%
viability at 0.4677 µM [1, 8]: 85.5%
viability at 0.2188 µM [1, 9]: 86.2%
viability at 0.1 µM [1, 10]: 85.1%
viability at 0.04677 µM [1, 11]: 87.3%
viability at 0.02188 µM [1, 4]: 88.8%
viability at 0.01 µM [1, 12]: 93%
viability at 4.677 µM ([1]; IMR-90, control, log (dose) [M] -5.33, individual replicates (Fig 3D), read-out: % Cell Survival): 83%
viability at 2.188 µM ([1]; IMR-90, control, log (dose) [M] -5.66, individual replicates (Fig 3D), read-out: % Cell Survival): 83.6%
viability at 1 µM ([1]; IMR-90, control, log (dose) [M] -6, individual replicates (Fig 3D), read-out: % Cell Survival): 78.9%
viability at 0.4677 µM ([1]; IMR-90, control, log (dose) [M] -6.33, individual replicates (Fig 3D), read-out: % Cell Survival): 82.5%
viability at 0.2188 µM ([1]; IMR-90, control, log (dose) [M] -6.66, individual replicates (Fig 3D), read-out: % Cell Survival): 81.2%
viability at 0.1 µM ([1]; IMR-90, control, log (dose) [M] -7, individual replicates (Fig 3D), read-out: % Cell Survival): 74.3%
viability at 0.01 µM ([1]; IMR-90, control, log (dose) [M] -8, individual replicates (Fig 3D), read-out: % Cell Survival): 85.3%
IC50 ([1]; IMR-90, OIS model, non-senescent IMR90 ER:RAS, nuclei count, 72 h): 26 µM
viability at 10 µM [2, 13]: 25.9%
viability at 4.68 µM [2, 14]: 55.3%
viability at 2.19 µM [2, 15]: 103%
viability at 1 µM [2, 16]: 115%
viability at 0.468 µM [2, 17]: 104%
viability at 0.219 µM [2, 18]: 126%
viability at 0.1 µM [2, 19]: 85.3%
viability at 0.0468 µM [2, 20]: 89.9%
viability at 0.0219 µM [2, 21]: 99.8%
viability at 0.01 µM [2, 22]: 95.8%
IC50 ([2]; Homo sapiens, TIS model, etoposide-induced senescent A549, nuclei count, 72 h): 5.7 µM
concentration at which a senolytic effect was reached ([2]; TIS A549, Hoechst labelling, marginal or no effect on normal cells): 4.64 µM
senolytic action (in words) ([2]; experimental screen, TIS senescent A549): strong senolytic action
% Cell Survival ([2]; log (dose) [M] -5): 26.9419% and 20.9924% and 29.7526%
% Cell Survival ([2]; log (dose) [M] -5.33): 57.8726% and 51.7176% and 56.1849%
% Cell Survival ([2]; log (dose) [M] -5.66): 111.826% and 87.7863% and 107.943%
% Cell Survival ([2]; log (dose) [M] -6): 147.166% and 101.59% and 95.3776%
% Cell Survival ([2]; log (dose) [M] -6.33): 97.7607% and 104.262% and 110.807%
% Cell Survival ([2]; log (dose) [M] -6.66): 107.348% and 137.468% and 133.789%
% Cell Survival ([2]; log (dose) [M] -7): 106.298% and 85.6234% and 63.9323%
% Cell Survival ([2]; log (dose) [M] -7.33): 97.7607% and 95.0382% and 76.8229%
% Cell Survival ([2]; log (dose) [M] -7.66): 110.287% and 102.735% and 86.4583%
% Cell Survival ([2]; log (dose) [M] -8): 107.348% and 95.9288% and 84.0495%
viability at 10 µM [3, 23]: 56.2%
viability at 4.68 µM [3, 24]: 65.7%
viability at 2.19 µM [3, 25]: 98.7%
viability at 1 µM [3, 26]: 85.7%
viability at 0.468 µM [3, 27]: 31.8%
viability at 0.219 µM [3, 28]: 96.2%
viability at 0.1 µM [3, 29]: 94%
viability at 0.0468 µM [3, 30]: 96.8%
viability at 0.0219 µM ([3]; Homo sapiens, A549, log (dose) [M] -7.66, Control cells, mean, read-out: Mean % Cell Survival): 95.6%
viability at 0.01 µM [3, 31]: 68.4%
IC50 ([3]; Homo sapiens, TIS model, non-senescent A549, nuclei count, 72 h): 10.4 µM
% Cell Survival ([3]; log (dose) [M] -5): 52.2043% and 59.0944% and 57.4435%
% Cell Survival ([3]; log (dose) [M] -5.33): 97.7607% and 99.3093%
% Cell Survival ([3]; log (dose) [M] -5.66): 91.6025% and 99.9233% and 104.599%
% Cell Survival ([3]; log (dose) [M] -6): 75.5773% and 89.4858% and 92.1278%
% Cell Survival ([3]; log (dose) [M] -6.33): 95.472%
% Cell Survival ([3]; log (dose) [M] -6.66): 87.9636% and 100.998% and 99.7662%
% Cell Survival ([3]; log (dose) [M] -7): 85.4444% and 99.693% and 96.7264%
% Cell Survival ([3]; log (dose) [M] -7.33): 92.3723% and 99.3093% and 98.675%
% Cell Survival ([3]; log (dose) [M] -7.66): 89.3632% and 102.916% and 94.4661%
% Cell Survival ([3]; log (dose) [M] -8): 103.761% and 101.325%

Cc1cc2c(C(C)C)c(O)c(O)c(C=O)c2c(O)c1-c1c(C)cc2c(C(C)C)c(O)c(O)c(C=O)c2c1O [Gossypol, gossypol]
viability at 10 µM [1, 4]: 86.7%
viability at 4.677 µM [1, 5]: 131%
viability at 2.188 µM [1, 6]: 118%
viability at 1 µM [1, 7]: 120%
viability at 0.4677 µM [1, 8]: 135%
viability at 0.2188 µM [1, 9]: 146%
viability at 0.1 µM [1, 10]: 126%
viability at 0.04677 µM [1, 11]: 143%
viability at 0.02188 µM [1, 4]: 121%
viability at 0.01 µM [1, 12]: 109%
viability at 4.68 µM ([1]; IMR-90, Control, log (dose) [M] -5.33, read-out: % Cell Survival): 113%
viability at 2.19 µM ([1]; IMR-90, Control, log (dose) [M] -5.66, read-out: % Cell Survival): 99.8%
viability at 1 µM ([1]; IMR-90, Control, log (dose) [M] -6, read-out: % Cell Survival): 101%
viability at 0.219 µM ([1]; IMR-90, Control, log (dose) [M] -6.66, read-out: % Cell Survival): 94.1%
viability at 0.1 µM ([1]; IMR-90, Control, log (dose) [M] -7, read-out: % Cell Survival): 94.9%
viability at 0.04677 µM ([1]; IMR-90, Control, log (dose) [M] -7.33, read-out: % Cell Survival): 101%
viability at 0.01 µM ([1]; IMR-90, Control, log (dose) [M] -8, read-out: % Cell Survival): 104%
viability at 10 µM [2, 13]: 110%
viability at 4.68 µM [2, 14]: 146%
viability at 2.19 µM [2, 15]: 166%
viability at 1 µM [2, 16]: 126%
viability at 0.468 µM [2, 17]: 74.4%
viability at 0.219 µM [2, 18]: 149%
viability at 0.1 µM [2, 19]: 112%
viability at 0.0468 µM [2, 20]: 69.1%
viability at 0.0219 µM [2, 21]: 107%
viability at 0.01 µM [2, 22]: 117%
viability at 10 µM [3, 23]: 117%
viability at 4.68 µM [3, 24]: 107%
viability at 2.19 µM [3, 25]: 100%
viability at 1 µM [3, 26]: 101%
viability at 0.468 µM [3, 27]: 108%
viability at 0.219 µM [3, 28]: 94.5%
viability at 0.1 µM [3, 29]: 68%
viability at 0.0468 µM [3, 30]: 101%
viability at 0.01 µM [3, 31]: 78.1%
